Series [1] relates to canine cardiac action potentials. As to the kind of experiment: Canine cardiac action potentials by electrocardiography and telemetry. It is filed as in vivo. Particulars: dogs; for QTc intervals as compared to vehicle-administered animals: oral gavage. From the text: Surgical Implantation of the Telemetry Device and ECG Leads. Anesthesia is introduced to dogs. Balanced gaseous anesthesia is used throughout the surgical procedure. Once anesthetized, animals are shaved and surgically scrubbed, encompassing surgical sites of the right inguinal area, chest and right lateral abdomen. Throughout the surgical procedure, animals are monitored for continuous assessment of vital signs. An incision is made along the right medial thigh and the femoral artery exposed by blunt dissection. Another incision is made in the lateral lumbar area cranial to the iliac crest for a tunneling needle to be passed subcutaneously from the incision on the medial thigh to the lumbar incision. A blood pressure catheter is passed through the needle from the lumbar incision and the needle removed. The femoral artery is ligated distally and incised to insert a catheter that is advanced until the tip resided in the femoral artery/abdominal aorta. The catheter is then secured by ligation. The incision in the lumbar area is enlarged and a subcutaneous pocket created in the left dorsal lumbar area to hold the transmitter body. The transmitter (e.g., Data Sciences International, St Paul, Minn., USA) is inserted into the subcutaneous pocket and secured body. Electrocardiography (ECG) leads are positioned. The incision is closed. Postoperative recovery lasts, e.g., about 2 weeks during which supplemental analgesics/antibiotics are administered as needed. Once the postoperative recovery period is complete, the animal is examined for study acceptability by the staff veterinarian and the implanted transmitter signal verified.
Study Design. […] ECGs, heart rate and arterial blood pressure data are recorded 1 hour prior to and then continuously for at least 6 hours following compound and/or vehicle administration. A blood sample for determination of compound plasma concentrations is collected from all subjects at approximately 6 h post-dose.
ECG Analysis. An ECG waveform morphology assessment, for the entire monitoring period, is completed for each dog by, e.g., a safety pharmacologist or veterinarian cardiologist. Standard ECG intervals (PR, RR, QRS and QT) are automatically measured by the data acquisition system and reported as, e.g., 10 min averages. The signals are collected with Data Sciences International Systems hardware. PR and QT manual overreads are conducted as appropriate. The manual measurements are completed from 50 mm s^−1 tracings at 30 min intervals. A mean of the three waveforms per time point are reported. QT intervals are corrected for heart rate (QTc) values by, e.g., using the formula by Funck-Bretano and Jaillon (1993).
Statistical Analysis. […] Dose-level averages (and accompanying standard deviation (s.d.) of these baseline-adjusted 10 min averages are calculated across study animals. ANOVA (e.g., repeated measures ANOVA) are applied to these baseline-adjusted averages. Pairwise t-tests are applied within the ANOVA to identify the presence of significant differences of the dose levels relative to vehicle. These t-tests are performed at a 0.05/2=0.025 significance level, so that the overall error rate across the comparisons in a given interval are not higher than 0.05. ECG interval data (reported at 30 min intervals) are analyzed using, e.g., repeated-measures ANOVA techniques similar to the systemic blood pressure and heart rate data described above.

Series [2] deals with dopamine D2 receptor (Homo sapiens (Human), UniProt P14416). As to the kind of experiment: Radioligand binding assay, [3H]spiperone, membranes of D2 receptor expressing cells. Particulars: [3H]spiperone competition; read-out: Radioligand Binding Affinity (Ki, nM) D2.
dopamine D2 receptor, sequence (P14416 whole entry, species assumed): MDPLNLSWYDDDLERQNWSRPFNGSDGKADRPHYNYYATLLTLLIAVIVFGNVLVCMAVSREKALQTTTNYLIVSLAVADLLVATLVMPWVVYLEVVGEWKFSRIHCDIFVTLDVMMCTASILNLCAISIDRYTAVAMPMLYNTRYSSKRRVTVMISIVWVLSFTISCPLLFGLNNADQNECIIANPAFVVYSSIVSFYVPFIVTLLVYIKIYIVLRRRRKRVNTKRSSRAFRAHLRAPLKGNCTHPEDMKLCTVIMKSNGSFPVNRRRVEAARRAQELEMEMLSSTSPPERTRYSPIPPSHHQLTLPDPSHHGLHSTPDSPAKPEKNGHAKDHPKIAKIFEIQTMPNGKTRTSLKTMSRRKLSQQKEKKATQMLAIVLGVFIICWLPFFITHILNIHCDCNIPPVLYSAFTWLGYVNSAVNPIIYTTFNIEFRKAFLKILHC
Series [3] concerns the target D3 (Homo sapiens (Human), UniProt P35462). As to the kind of experiment: Radioligand binding affinity, D3.
In series [4] the test system is gastric motility in canines. As to the kind of experiment: Antral manometry (gastric motility) in canines. Format: in vivo, canine. To be noted: for motor dysfunction: canines. As for the experimental part: Animals were fed an ad libitum chow diet (LabDiet®). After an overnight fast, the dogs were anesthetized with Pentothal (sodium thiopental, 11 mg/kg IV; Abbott Laboratories, North Chicago, Ill.) and maintained on 2-4% isoflurane (Abbott Laboratories) in oxygen (1 L/min) carrier gases delivered from a ventilator after endotracheal intubation. A cannula was placed in the jejunum 20 cm distal to the pylorus for the assessment of antral motility. Dogs were allowed to recover in their individual cages for 2 weeks. All experiments were performed after the dogs were completed recovered from the surgical procedure. The study was performed according to the National Institutes of Health Guidelines on the use of laboratory animals and approved by the Animal Care and Use Committee of the University of Texas Medical Branch at Galveston, Tex. To investigate the effect of the drugs on antral manometry, the study of each drug dose was done on three randomized sessions on separate days following the consumption of one can of solid dog food: 1) a Control session: In which animals received the vehicle only; 2) Dose I session: in which the lower dose of the drug was used; and 3) Dose II session: in which the higher dose of the drug was used (please refer to table for drug doses). Drug administration was performed according to Table 4, below. [table] Antral manometry was performed as follows. Following an overnight fast, an intraluminal water-perfused manometry catheter was inserted into the antrum through the jejunal cannula. Antral manometry recording was initiated after the consumption of one can of solid food and continued for 3 hours. The catheter contained 3 manometric sensors at a 1 cm interval. Dogs were given 10 minutes of accommodation, prior to the start of the recording. For data analysis, motility index (MI), defined as the integrated area (area under curve—AUC) between baseline and contractions per hour, was calculated. For statistical analysis, the Student's t-test was used for assessment of individual differences between groups (High dose, low dose of each drug) compared to control—Microsoft® Excel 2002). All values are expressed as mean±SEM. Significance was considered when p value was ≦0.05.

For series [5], the system named is gastric emptying in rats. Put plainly: Solid gastric emptying in rats. It is filed as in vivo, rat (Sprague-Dawley). Particulars: preliminary.
Series [6] deals with 5HT2. Put plainly: Radioligand binding affinity, 5HT2.
Series [7] addresses α1. Put plainly: Radioligand binding affinity, α1.
For series [8], the target named is 5HT4 (Homo sapiens (Human), UniProt Q13639). Put plainly: Radioligand binding affinity, 5HT4.
5HT4, sequence (Q13639 whole entry, species assumed): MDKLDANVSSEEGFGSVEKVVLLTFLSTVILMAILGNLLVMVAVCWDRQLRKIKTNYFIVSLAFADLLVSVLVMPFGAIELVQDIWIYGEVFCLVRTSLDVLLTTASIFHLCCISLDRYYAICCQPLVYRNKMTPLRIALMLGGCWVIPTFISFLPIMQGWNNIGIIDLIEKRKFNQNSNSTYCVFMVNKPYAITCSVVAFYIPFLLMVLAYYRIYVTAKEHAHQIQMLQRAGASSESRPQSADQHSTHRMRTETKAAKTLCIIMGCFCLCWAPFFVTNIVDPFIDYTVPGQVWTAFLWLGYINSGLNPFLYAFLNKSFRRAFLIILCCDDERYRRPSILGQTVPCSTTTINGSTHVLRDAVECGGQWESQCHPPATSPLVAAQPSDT
Series [9] deals with 5HT3 (Homo sapiens (Human), UniProt P46098). As to the kind of experiment: Radioligand binding affinity, 5HT3.
5HT3, sequence (P46098 24-478, species assumed): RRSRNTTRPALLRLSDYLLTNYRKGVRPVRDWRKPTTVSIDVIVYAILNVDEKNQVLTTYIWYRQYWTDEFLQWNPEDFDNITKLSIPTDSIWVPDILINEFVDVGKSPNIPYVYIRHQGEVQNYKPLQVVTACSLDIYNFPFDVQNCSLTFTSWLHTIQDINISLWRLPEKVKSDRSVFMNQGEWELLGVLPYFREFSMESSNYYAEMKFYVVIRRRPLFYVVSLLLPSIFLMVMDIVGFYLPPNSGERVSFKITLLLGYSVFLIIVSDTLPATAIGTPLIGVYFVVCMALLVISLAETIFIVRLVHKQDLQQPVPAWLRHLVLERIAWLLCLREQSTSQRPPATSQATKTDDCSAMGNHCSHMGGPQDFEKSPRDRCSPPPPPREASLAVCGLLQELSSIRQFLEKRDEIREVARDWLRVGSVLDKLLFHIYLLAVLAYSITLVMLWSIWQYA
The target of series [10] is hERG channel (Homo sapiens (Human), UniProt Q12809). Put plainly: hERG voltage clamp assay in hERG-expressing cultured cells. It is filed as cell-based. To be noted: for inhibition at 0.1 µM / inhibition at 1 µM / inhibition at 10 µM: human, hERG-expressing cultured cells, read-out: hERG Activity (% Inhibition of Tail Current); for inhibition at 0.1 µM: 100 nM; for IC50: read-out: concentration necessary to inhibit 50% of the tail currents mediated by hERG channels. A general note: Block of hERG is tested as a sign of cardiac risk.
hERG channel, sequence (Q12809 whole entry): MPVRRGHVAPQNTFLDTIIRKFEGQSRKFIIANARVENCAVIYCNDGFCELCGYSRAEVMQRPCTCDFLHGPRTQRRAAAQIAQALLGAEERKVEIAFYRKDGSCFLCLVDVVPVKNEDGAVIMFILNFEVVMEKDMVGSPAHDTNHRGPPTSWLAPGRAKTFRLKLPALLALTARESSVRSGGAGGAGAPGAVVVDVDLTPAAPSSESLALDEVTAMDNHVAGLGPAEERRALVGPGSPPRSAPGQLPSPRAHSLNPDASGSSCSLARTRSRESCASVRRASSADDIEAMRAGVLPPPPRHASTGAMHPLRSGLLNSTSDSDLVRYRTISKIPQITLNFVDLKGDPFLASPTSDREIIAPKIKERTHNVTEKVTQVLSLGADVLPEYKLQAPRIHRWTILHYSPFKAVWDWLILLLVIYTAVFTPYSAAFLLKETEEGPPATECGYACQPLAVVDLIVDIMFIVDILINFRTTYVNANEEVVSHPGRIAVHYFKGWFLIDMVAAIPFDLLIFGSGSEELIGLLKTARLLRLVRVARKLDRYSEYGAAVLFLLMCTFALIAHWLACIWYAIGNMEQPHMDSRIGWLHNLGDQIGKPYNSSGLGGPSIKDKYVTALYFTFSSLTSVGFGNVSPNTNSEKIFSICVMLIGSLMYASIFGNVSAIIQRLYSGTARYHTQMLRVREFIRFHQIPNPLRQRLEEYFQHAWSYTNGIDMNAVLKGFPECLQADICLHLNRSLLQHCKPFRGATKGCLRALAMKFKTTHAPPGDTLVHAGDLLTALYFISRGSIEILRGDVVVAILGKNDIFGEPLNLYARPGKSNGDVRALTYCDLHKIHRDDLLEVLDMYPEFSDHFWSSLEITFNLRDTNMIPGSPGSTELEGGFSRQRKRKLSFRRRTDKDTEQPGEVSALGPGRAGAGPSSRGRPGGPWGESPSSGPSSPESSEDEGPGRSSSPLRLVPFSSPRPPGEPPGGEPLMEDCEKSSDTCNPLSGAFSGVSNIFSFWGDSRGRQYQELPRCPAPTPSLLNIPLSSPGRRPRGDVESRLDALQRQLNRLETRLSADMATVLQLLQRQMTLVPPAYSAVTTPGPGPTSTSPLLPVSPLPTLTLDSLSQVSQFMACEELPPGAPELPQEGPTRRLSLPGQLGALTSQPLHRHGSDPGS

Series [11] concerns gastric emptying in rats. As to the kind of experiment: Solid gastric emptying in rats. It is filed as in vivo, rat (Sprague-Dawley). As for the experimental part: Animals: […] The animals received a standard laboratory rat chow and tap water ad libitum. The rats were around 400 g at 14 weeks age when used in gastric emptying study. Drugs: S-Carbidopa was purchased from Sigma (#: C1335). Stock solution of S-Carbidopa was prepared at 5 mg/ml using DMSO as solvent. 80 μl stock solution was further diluted into 1 ml distilled water to make 0.4 mg/ml. The effect of S-Carbidopa (1 mg/kg) on solid gastric emptying was studied. Procedures: Male SD rats were involved in this study. Rats were fasted in cages with metal wired mesh for 24 hours with free access to water; S-carbidopa (1 mg/kg) was administered to the rats by oral gavage. Control rats were not administered S-carbidopa. 15 minutes following administration, rats were given access to 2 g of rat chow pellets for ten minutes. All rats completely ingested the chow within the 10 minute time frame. Rats were sacrificed by sodium pentobarbital (100 mg/kg) overdose 90 min after feeding. The stomach was surgically isolated and removed. Gastric contents were recovered from the stomach, air dried for 48 hours and then weighed. Solid gastric emptying was calculated according to the following formula: Gastric emptying (%)=[1−(dried gastric content in g)/2 g]×100. All values are expressed as mean±SEM.

Series [12] can be described thus: Therapeutic plasma concentrations.
Series [13] concerns the target H1 (Homo sapiens (Human), UniProt P35367). As to the kind of experiment: Radioligand binding affinity, H1.

Each structure is given as a SMILES string. Several values for one entry are separate records, joined by “and”; a condition that tells them apart may be missing. Equal values may be shown once. A value given as a limit tells only on which side of the number the result lay.

These results are taken from US9132134B2, “Methods for treating GI tract disorders” (Neurogastrx, Inc., priority 2012, dated 2015).

The Ki is a measure of affinity in units of concentration, obtained from inhibition or displacement. For orientation: inhibition means the percentage by which the read-out fell short of the control.

D3, sequence (P35462 whole entry): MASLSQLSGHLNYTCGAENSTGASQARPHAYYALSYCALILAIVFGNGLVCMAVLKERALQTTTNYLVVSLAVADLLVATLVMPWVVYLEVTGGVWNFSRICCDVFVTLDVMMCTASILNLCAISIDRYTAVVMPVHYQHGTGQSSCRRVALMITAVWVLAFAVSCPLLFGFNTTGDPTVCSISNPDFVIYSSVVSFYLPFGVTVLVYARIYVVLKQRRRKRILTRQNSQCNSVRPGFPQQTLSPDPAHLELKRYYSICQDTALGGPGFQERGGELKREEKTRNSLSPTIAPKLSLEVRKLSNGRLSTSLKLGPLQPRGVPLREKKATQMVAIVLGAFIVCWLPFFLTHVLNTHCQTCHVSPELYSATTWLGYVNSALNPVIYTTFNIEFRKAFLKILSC
H1, sequence (P35367 whole entry): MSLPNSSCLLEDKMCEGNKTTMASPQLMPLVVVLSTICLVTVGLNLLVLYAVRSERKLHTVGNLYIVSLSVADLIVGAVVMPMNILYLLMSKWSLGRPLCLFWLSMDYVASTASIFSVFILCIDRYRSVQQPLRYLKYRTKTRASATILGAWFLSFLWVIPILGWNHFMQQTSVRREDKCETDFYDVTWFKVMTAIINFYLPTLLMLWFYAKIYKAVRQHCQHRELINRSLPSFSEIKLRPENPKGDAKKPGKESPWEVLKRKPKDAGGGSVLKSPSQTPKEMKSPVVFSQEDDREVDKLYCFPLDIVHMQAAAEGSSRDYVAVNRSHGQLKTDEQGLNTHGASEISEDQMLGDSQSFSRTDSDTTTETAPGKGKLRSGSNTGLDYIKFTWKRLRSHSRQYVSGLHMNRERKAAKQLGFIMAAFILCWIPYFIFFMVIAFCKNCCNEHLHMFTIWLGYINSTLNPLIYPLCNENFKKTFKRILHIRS

Consider `CN(CCOc1ccc(NS(C)(=O)=O)cc1)CCc1ccc(NS(C)(=O)=O)cc1` [dofetilide], for which the “incidence of premature ventricular contractions, T-wave abnormalities, and right bundle branch block” value in [1] (0.3 mg/kg oral gavage) is given as “increases”. Further, the QTc intervals result in [1] (0.3 mg/kg oral gavage, post-dose period of 1-6 hours) is on record as “increased”.

As to `CCN(CC)CCNC(=O)c1cc(Cl)c(N)cc1OC` [Metoclopramide], the inhibition constant Ki in [2] worked out at 64 nM; in [3], 16 nM.

Take `Cl.NCCc1ccc(O)c(O)c1` [dopamine hydrochloride, Dopamine hydrochloride]: the “motility index (MI), antral manometry” value in [4] (50 mg/canine IV, immediately before meal, p=0.06) is “decreased MI in all channels”.

Turning to `CS(=O)(=O)c1ccc2c(c1)N(CCCN1CCC(C(N)=O)CC1)c1ccccc1S2` [Metopimazine, 1-[3-[2-(methylsulfonyl)-10H-phenothiazin-10-yl]propyl]-piperidine-4-carboxamide], the “increase in gastric emptying as compared to vehicle control” value in [5] (3 mg/kg) is given as “about 40%”; in [5] (10 mg/kg) it was “about 18%”; in series [5] (pooling the 3 mg/kg and 10 mg/kg doses) it was “about 20%”. Further, the “QTc intervals as compared to vehicle-administered animals” value in [1] was “no significant increases”. For the same molecule, the Ki in [6] came out at 15 nM; in series [7], 1.9 nM; in series [2], 0.07 nM; in series [3] it was 0.61 nM. Further, in series [4], the motor dysfunction entry was “no motor dysfunction was observered”. Further, in [8], the “Radioligand Binding Affinity (Ki, nM) 5HT4” value is “Inactive”. Besides, the “Radioligand Binding Affinity (Ki, nM) 5HT3” value in series [9] is given as “Inactive”. In [10], the inhibition at 0.1 µM was found to be 4.5%. Besides, the inhibition at 1 µM in [10] is 32%. Moreover, in series [10], the inhibition at 10 µM came to 82%. Moreover, in series [10], the IC50 was about 3000 nM.

With `C[C@@](Cc1ccc(O)c(O)c1)(NN)C(=O)O` [S-Carbidopa, (2S)-3-(3,4-dihydroxyphenyl)-2-hydrazino-2-methylpropanoic acid], the “QTc intervals as compared to vehicle-administered animals” value in series [1] was “no significant increases”. The “motility index (MI), antral manometry” value in [4] (1 mg/kg IV, 15 min prior to meal, vs control, p=0.05) is “robustly increased MI in all three of the channels tested”. Further, the motor dysfunction result is given as “no motor dysfunction was observered” in series [4] and “no motor dysfunction was observed” in series [11] (rats). In series [11] (1 mg/kg oral gavage, 90 min after feeding), the “Gastric emptying (%), mean of the 3 rats” value is recorded as 68.2%. Also, the “solid gastric emptying compared to control rats” value in series [11] (1 mg/kg, rats, initial results) is given as “improves solid gastric emptying”. Also, the “Gastric emptying (%)” value in series [11] (individual rat, 1 mg/kg oral gavage, 90 min after feeding) is 55% and 62% and 87.5%. Moreover, the stomach content in [11] (individual rat, 1 mg/kg oral gavage, dried gastric content (g) 90 min after 2 g chow) was 0.9 and 0.76 and 0.25.

On to `CS(=O)(=O)c1ccc2c(c1)N(CCCN1CCC(C(=O)O)CC1)c1ccccc1S2` [Metopimazine acid], for which, in [1], the “QTc intervals as compared to vehicle-administered animals” value is “no significant increases”. The Therapeutic plasma concentrations in [12] lay within 300 to 900 nM. Besides, the affinity in series [13] corresponds to a Ki of 140 nM. The molecule also yielded a Ki in series [6] of 370 nM. Also, the inhibition constant Ki in [7] stood at 210 nM. The “Radioligand Binding Affinity (Ki, nM) 5HT4” value in series [8] is listed as “Inactive”. The “Radioligand Binding Affinity (Ki, nM) 5HT3” value in series [9] is “Inactive”. Further, the inhibition constant (Ki) in [3] was over 100 nM. In addition, in series [10], the inhibition at 0.1 µM was 0.2%, the inhibition at 1 µM was found to be 4%, the inhibition at 10 µM stood at 11% and the IC50 was over 10000 nM.
